Data taken from paper PMC7076669 (Pharmaceutics, 2020).
≈ marks a conversion by molar mass, not a printed value. Where two headings read alike, the source gives them in different places.

Columns and labels:
[1] = cited from earlier work
[2] = Visual solubility of ibuprofen in liquid excipients; format: physicochemical; details: for Ibuprofen Solubility in Excipient: visual solubility
Description: In this method, the excipients were accurately weighed (2.5 g) in individually-labelled 20 mL scintillation vials. […] Further, the vials were placed in a shaking water bath (Fisher Scientific, Waltham, MA, USA) maintained at 25 °C for at least 15 min to allow proper mixing.

[3] = in MCT 70 (medium chain triglycerides), 25 °C
[4] = in oleyl alcohol (Kollicream OA), 25 °C
[5] = in propylene glycol (Kollicream PG), 25 °C

CC(C)Cc1ccc(C(C)C(=O)O)cc1 (stereo not drawn) [Ibuprofen, α-methyl-4-(2-methylpropyl) benzeneacetic acid]
aqueous solubility ([1]; pH 4.5): 0.084 µg/mL (≈ 0.407 µM)
aqueous solubility ([1]; pH 5.54): 0.685 µg/mL (≈ 3.32 µM)
Ibuprofen solubility, Percentage ([2]; in Kolliphor PS 80, 25 °C): 18%
Ibuprofen Solubility in Excipient ([2]; in Kolliphor PS 80, 25 °C): 180 mg/g
Ibuprofen solubility, Percentage [2, 3]: 14%
Ibuprofen Solubility in Excipient [2, 3]: 140 mg/g
Ibuprofen solubility, Percentage ([2]; in PEG 400, 25 °C): 19%
Ibuprofen Solubility in Excipient ([2]; in PEG 400, 25 °C): 190 mg/g
Ibuprofen solubility, Percentage ([2]; in Transcutol, 25 °C): 30%
Ibuprofen Solubility in Excipient ([2]; in Transcutol, 25 °C): 300 mg/g
Ibuprofen solubility, Percentage ([2]; in glycerol, 25 °C): 0.4%
Ibuprofen Solubility in Excipient ([2]; in glycerol, 25 °C): 4 mg/g
Ibuprofen solubility, Percentage ([2]; in isopropyl myristate, 25 °C): 20%
Ibuprofen Solubility in Excipient ([2]; in isopropyl myristate, 25 °C): 200 mg/g
Ibuprofen solubility, Percentage ([2]; in mineral oil, 25 °C): 6%
Ibuprofen Solubility in Excipient ([2]; in mineral oil, 25 °C): 60 mg/g
Ibuprofen solubility, Percentage [2, 4]: 18%
Ibuprofen Solubility in Excipient [2, 4]: 180 mg/g
Ibuprofen solubility, Percentage [2, 5]: 30%
Ibuprofen Solubility in Excipient [2, 5]: 300 mg/g
